Experiments:
[1] = biological target: T1, phosphorylated Myo5 (actoMyo5) (Saccharomyces cerevisiae, UniProt Q04439); experiment: stopped-flow light scattering, ADP release from ADP-saturated actoMyo5 mixed with ATP; type: binding; set-up: motor domain plus both IQ motifs, truncated at Gly763, C-terminal AviTag-TEV-His9 kept; co-expressed with She4 in S. cerevisiae D1074; phosphorylated at TEDS site S357 by Pak1; Cmd1 light chain in excess; with Calmodulin; Actin, alpha skeletal muscle (rabbit, Oryctolagus cuniculus); settings: 100 µM ADP preincubated with 200 nM actoMyo5, then 2.5 mM ATP, KMg25 buffer pH 7, 20°C, phosphorylated at S357
T1 sequence (Q04439 whole entry, looked up, the tested form may be a part): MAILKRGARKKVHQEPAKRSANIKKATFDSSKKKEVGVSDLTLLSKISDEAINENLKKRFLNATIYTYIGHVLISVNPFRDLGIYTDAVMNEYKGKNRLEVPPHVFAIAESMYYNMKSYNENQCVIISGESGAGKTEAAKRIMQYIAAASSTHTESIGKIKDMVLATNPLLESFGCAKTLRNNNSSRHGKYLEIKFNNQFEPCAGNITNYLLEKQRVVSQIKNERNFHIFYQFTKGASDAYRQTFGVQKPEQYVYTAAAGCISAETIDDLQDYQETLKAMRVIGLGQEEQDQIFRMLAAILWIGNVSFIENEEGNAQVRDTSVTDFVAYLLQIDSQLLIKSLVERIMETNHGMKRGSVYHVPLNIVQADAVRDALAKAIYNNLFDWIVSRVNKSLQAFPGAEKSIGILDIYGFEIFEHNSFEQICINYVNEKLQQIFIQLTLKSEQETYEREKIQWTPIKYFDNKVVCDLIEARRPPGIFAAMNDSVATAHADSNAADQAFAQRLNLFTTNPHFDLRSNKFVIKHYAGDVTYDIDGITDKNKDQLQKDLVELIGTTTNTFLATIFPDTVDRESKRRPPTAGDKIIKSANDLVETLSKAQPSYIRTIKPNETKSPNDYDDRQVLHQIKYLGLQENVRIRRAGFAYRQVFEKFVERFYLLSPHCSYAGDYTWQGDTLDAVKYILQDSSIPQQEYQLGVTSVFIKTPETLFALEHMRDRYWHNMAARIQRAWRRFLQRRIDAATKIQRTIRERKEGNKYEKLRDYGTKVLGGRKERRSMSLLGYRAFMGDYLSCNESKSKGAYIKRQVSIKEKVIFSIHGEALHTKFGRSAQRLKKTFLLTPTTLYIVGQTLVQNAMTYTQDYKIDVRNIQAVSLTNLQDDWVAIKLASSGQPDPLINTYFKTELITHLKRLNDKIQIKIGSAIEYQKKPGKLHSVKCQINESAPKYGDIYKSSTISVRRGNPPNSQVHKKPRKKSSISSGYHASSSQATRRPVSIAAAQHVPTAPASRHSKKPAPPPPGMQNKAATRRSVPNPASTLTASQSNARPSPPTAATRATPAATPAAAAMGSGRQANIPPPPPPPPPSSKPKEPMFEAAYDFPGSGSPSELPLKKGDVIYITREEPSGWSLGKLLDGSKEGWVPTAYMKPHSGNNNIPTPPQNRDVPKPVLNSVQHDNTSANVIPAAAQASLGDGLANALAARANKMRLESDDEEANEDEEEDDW
Text: stopped-flow light scattering, ADP release from ADP-saturated actoMyo5 mixed with ATP on phosphorylated Myo5 (actoMyo5)

[2] = biological target: T2, unphosphorylated Myo5 (actoMyo5) (Saccharomyces cerevisiae, UniProt Q04439); experiment: as above; type: binding; set-up: motor domain plus both IQ motifs, truncated at Gly763, C-terminal AviTag-TEV-His9 kept; co-expressed with She4 in S. cerevisiae D1074; lambda phosphatase-treated (unphosphorylated at TEDS site S357); Cmd1 light chain in excess; with Calmodulin; Actin, alpha skeletal muscle (rabbit, Oryctolagus cuniculus); settings: ADP dissociation rate constant, 100 µM ADP preincubated with 200 nM actoMyo5, then 2.5 mM ATP, KMg25 buffer pH 7, 20°C
T2 sequence (Q04439 whole entry, looked up, the tested form may be a part): as above
Text: stopped-flow light scattering, ADP release from ADP-saturated actoMyo5 mixed with ATP on unphosphorylated Myo5 (actoMyo5)

[3] = biological target: T2, unphosphorylated Myo5 (actoMyo5); experiment: biochemical
Text: stopped-flow light scattering, ATP-induced dissociation of actoMyo5, hyperbolic fit on unphosphorylated Myo5 (actoMyo5)

[4] = biological target: T1, phosphorylated Myo5 (actoMyo5); settings: apparent second-order rate constant of ATP binding to nucleotide-free actoMyo5 (actin-bound); MgATP, KMg25 buffer pH 7, 20°C; phosphorylated at S357
Text: stopped-flow light scattering, ATP-induced dissociation of actoMyo5, linear fit on phosphorylated Myo5 (actoMyo5)

| Structure (SMILES) | ADP dissociation rate constant [1] | ADP release rate constant [2] | Kd [3] | Phosphorylated Myo5 [4] |
| --- | --- | --- | --- | --- |
| Nc1ncnc2c1ncn2[C@@H]1O[C@H](COP(=O)(O)OP(=O)(O)O)[C@@H](O)[C@H]1O [ADP] | 74 ± 2.0 s⁻¹ | 107 (±5.9) s^−1 | – | – |
| Nc1ncnc2c1ncn2[C@@H]1O[C@H](COP(=O)(O)OP(=O)(O)OP(=O)(O)O)[C@@H](O)[C@H]1O [ATP] | – | – | 167 µM | 0.39 (±0.017) µM^−1 s^−1 |

Source: publication PMC10406613, “Endocytic myosin-1 is a force-insensitive, power-generating motor” (The Journal of Cell Biology, 2023)
